Assay results: PubChem BioAssay (NCI)
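All cell lines were grown in 96-well plates and treated with compound for 48 hours. GI50 is the concentration that inhibits growth by half. TGI marks complete inhibition of growth.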

Assays:
Assay in all cases: NCI anticancer screen, dose series, 48 h
UO-31 renal = system: UO-31 renal
A549 NSCLC = system: A549 NSCLC
CCRF-CEM leukemia = system: CCRF-CEM leukemia
HL-60(TB) leukemia = system: HL-60(TB) leukemia
K-562 leukemia = system: K-562 leukemia
OVCAR-5 ovarian = system: OVCAR-5 ovarian
SK-MEL-28 melanoma = system: SK-MEL-28 melanoma
SK-OV-3 ovarian = system: SK-OV-3 ovarian
SNB-78 CNS = system: SNB-78 CNS
SK-MEL-2 melanoma = system: SK-MEL-2 melanoma
UACC-62 melanoma = system: UACC-62 melanoma
A498 renal = system: A498 renal
786-0 renal = system: 786-0 renal
CAKI-1 renal = system: CAKI-1 renal
SF-268 CNS = system: SF-268 CNS
NCI-H460 lung = system: NCI-H460 lung
IGROV1 ovarian = system: IGROV1 ovarian
U251 CNS = system: U251 CNS
M14 melanoma = system: M14 melanoma
HCT-116 colon = system: HCT-116 colon
SK-MEL-5 melanoma = system: SK-MEL-5 melanoma
DMS 273 small cell lung = system: DMS 273 small cell lung
DMS 114 small cell lung = system: DMS 114 small cell lung
HCC-2998 colon = system: HCC-2998 colon
OVCAR-4 ovarian = system: OVCAR-4 ovarian
KM12 colon = system: KM12 colon
NCI-H226 lung = system: NCI-H226 lung
KM20L2 colon = system: KM20L2 colon
TK-10 renal = system: TK-10 renal
M19-MEL melanoma = system: M19-MEL melanoma
HT29 colon = system: HT29 colon
EKVX NSCLC = system: EKVX NSCLC
LOX IMVI melanoma = system: LOX IMVI melanoma
ACHN renal = system: ACHN renal
HOP-62 NSCLC = system: HOP-62 NSCLC
COLO 205 colon = system: COLO 205 colon
UACC-257 melanoma = system: UACC-257 melanoma
SNB-19 CNS = system: SNB-19 CNS
SN12C renal = system: SN12C renal
SF-295 CNS = system: SF-295 CNS
LXFL 529 NSCLC = system: LXFL 529 NSCLC
OVCAR-8 ovarian = system: OVCAR-8 ovarian
MOLT-4 leukemia = system: MOLT-4 leukemia
OVCAR-3 ovarian = system: OVCAR-3 ovarian
MALME-3M melanoma = system: MALME-3M melanoma
HCT-15 colon = system: HCT-15 colon
NCI-H522 lung = system: NCI-H522 lung
RPMI-8226 leukemia = system: RPMI-8226 leukemia
SW-620 colon = system: SW-620 colon
SNB-75 CNS = system: SNB-75 CNS
NCI-H23 lung = system: NCI-H23 lung
DLD-1 colon = system: DLD-1 colon
RXF 393 renal = system: RXF 393 renal
SF-539 CNS = system: SF-539 CNS
HOP-18 NSCLC = system: HOP-18 NSCLC
SR leukemia = system: SR leukemia
HOP-92 NSCLC = system: HOP-92 NSCLC

## CNc1nc(N)cc(=O)[nH]1
UO-31 renal
  TGI: > 100 µM
A549 NSCLC
  TGI: > 100 µM
CCRF-CEM leukemia
  TGI: > 100 µM
HL-60(TB) leukemia
  TGI: > 100 µM
K-562 leukemia
  TGI: > 100 µM
OVCAR-5 ovarian
  TGI: > 100 µM
SK-MEL-28 melanoma
  TGI: > 100 µM
SK-OV-3 ovarian
  TGI: > 100 µM
SNB-78 CNS
  TGI: > 100 µM
SK-MEL-2 melanoma
  TGI: > 100 µM
UACC-62 melanoma
  TGI: > 100 µM
A498 renal
  TGI: > 100 µM
786-0 renal
  TGI: > 100 µM
CAKI-1 renal
  TGI: > 100 µM
SF-268 CNS
  TGI: > 100 µM
NCI-H460 lung
  TGI: > 100 µM
IGROV1 ovarian
  TGI: > 100 µM
U251 CNS
  TGI: > 100 µM
M14 melanoma
  TGI: > 100 µM
HCT-116 colon
  TGI: > 100 µM
SK-MEL-5 melanoma
  TGI: > 100 µM
DMS 273 small cell lung
  TGI: > 100 µM
DMS 114 small cell lung
  TGI: > 100 µM
HCC-2998 colon
  TGI: > 100 µM
OVCAR-4 ovarian
  TGI: > 100 µM
KM12 colon
  TGI: > 100 µM
NCI-H226 lung
  TGI: > 100 µM
KM20L2 colon
  TGI: > 100 µM
TK-10 renal
  TGI: > 100 µM
M19-MEL melanoma
  TGI: > 100 µM
HT29 colon
  TGI: > 100 µM
EKVX NSCLC
  TGI: > 100 µM
LOX IMVI melanoma
  TGI: > 100 µM
ACHN renal
  TGI: > 100 µM
HOP-62 NSCLC
  TGI: > 100 µM
COLO 205 colon
  TGI: > 100 µM
UACC-257 melanoma
  TGI: > 100 µM
SNB-19 CNS
  TGI: > 100 µM
SN12C renal
  TGI: > 100 µM
SF-295 CNS
  TGI: > 100 µM
LXFL 529 NSCLC
  TGI: > 100 µM
OVCAR-8 ovarian
  TGI: > 100 µM
MOLT-4 leukemia
  TGI: > 100 µM
OVCAR-3 ovarian
  TGI: > 100 µM
MALME-3M melanoma
  TGI: > 100 µM
HCT-15 colon
  TGI: > 100 µM
NCI-H522 lung
  TGI: > 100 µM
RPMI-8226 leukemia
  TGI: > 100 µM
SW-620 colon
  TGI: > 100 µM
SNB-75 CNS
  TGI: > 100 µM
NCI-H23 lung
  TGI: > 100 µM
DLD-1 colon
  TGI: > 100 µM

## CC(C)CC(=O)[O-].CC(C)CC(=O)[O-].N.N.N.N.[Co+3].[O-][Cl+3]([O-])([O-])O.[O-][Cl+3]([O-])([O-])[O-]
UO-31 renal
  GI50: > 100 µM
  TGI: > 100 µM
RXF 393 renal
  GI50: > 100 µM
  TGI: > 100 µM
A549 NSCLC
  GI50: > 100 µM
  TGI: > 100 µM
CCRF-CEM leukemia
  GI50: > 100 µM
  TGI: > 100 µM
HL-60(TB) leukemia
  GI50: > 100 µM
  TGI: > 100 µM
SF-539 CNS
  GI50: > 100 µM
  TGI: > 100 µM
K-562 leukemia
  GI50: > 100 µM
  TGI: > 100 µM
OVCAR-5 ovarian
  GI50: > 100 µM
  TGI: > 100 µM
SK-MEL-28 melanoma
  GI50: > 100 µM
  TGI: > 100 µM
SK-OV-3 ovarian
  GI50: > 100 µM
  TGI: > 100 µM
SNB-78 CNS
  GI50: > 100 µM
  TGI: > 100 µM
SK-MEL-2 melanoma
  GI50: > 100 µM
  TGI: > 100 µM
UACC-62 melanoma
  GI50: > 100 µM
  TGI: > 100 µM
786-0 renal
  GI50: > 100 µM
  TGI: > 100 µM
SF-268 CNS
  GI50: > 100 µM
  TGI: > 100 µM
IGROV1 ovarian
  GI50: > 100 µM
  TGI: > 100 µM
M14 melanoma
  GI50: > 100 µM
  TGI: > 100 µM
HOP-18 NSCLC
  GI50: > 100 µM
  TGI: > 100 µM
HCC-2998 colon
  GI50: > 100 µM
  TGI: > 100 µM
KM12 colon
  GI50: > 100 µM
  TGI: > 100 µM
NCI-H226 lung
  GI50: > 100 µM
  TGI: > 100 µM
TK-10 renal
  GI50: > 100 µM
  TGI: > 100 µM
SR leukemia
  GI50: > 100 µM
  TGI: > 100 µM
EKVX NSCLC
  GI50: > 100 µM
  TGI: > 100 µM
LOX IMVI melanoma
  GI50: > 100 µM
  TGI: > 100 µM
ACHN renal
  GI50: > 100 µM
  TGI: > 100 µM
HOP-92 NSCLC
  GI50: > 100 µM
  TGI: > 100 µM
COLO 205 colon
  GI50: > 100 µM
  TGI: > 100 µM
UACC-257 melanoma
  GI50: > 100 µM
  TGI: > 100 µM
SNB-19 CNS
  GI50: > 100 µM
  TGI: > 100 µM
SN12C renal
  GI50: > 100 µM
  TGI: > 100 µM
SF-295 CNS
  GI50: > 100 µM
  TGI: > 100 µM
LXFL 529 NSCLC
  GI50: > 100 µM
  TGI: > 100 µM
OVCAR-8 ovarian
  GI50: > 100 µM
  TGI: > 100 µM
MOLT-4 leukemia
  GI50: > 100 µM
  TGI: > 100 µM
MALME-3M melanoma
  GI50: > 100 µM
  TGI: > 100 µM
HCT-15 colon
  GI50: > 100 µM
  TGI: > 100 µM
RPMI-8226 leukemia
  GI50: > 100 µM
  TGI: > 100 µM
SW-620 colon
  GI50: > 100 µM
  TGI: > 100 µM
SNB-75 CNS
  GI50: > 100 µM
  TGI: > 100 µM
NCI-H23 lung
  GI50: > 100 µM
  TGI: > 100 µM
DLD-1 colon
  GI50: > 100 µM
  TGI: > 100 µM
